According to US20050181952A1, “Slow-release agrochemicals dispenser and method of use” (priority 2002, published 2005):

Assays:
Striga [1] = test: Field experiment Short Rains 2002: slow release formulations without free herbicide, Striga control; assay type: in vivo
Description: A solid coat of polylvinylpyrollidone (PVP) (avg. MW 90 Kd) was used to bind the various formulations to the maize seed. 90 mg of PVP mixed with 2.9 ml water was combined with various amounts of the slow release formulations described in Example 1 or with 36 mg dry imazapyr (acid form) or sodium pyrithiobac powder mixed thoroughly together and then with 144 maize seeds (to give a imazapyr coating of 0.25 mg a.e. imazapyr seed^−1). This is the equivalent of 13.25 g a.e. ha^−1, respectively, when planted in the field at 53,300 seeds ha^−1. The treated seeds were then planted in the field within 2 days of coating. All field experiments were conducted at the National Sugar Research Center (NRSC) of the Kenya Agricultural Research Institute (KARI) near Kibos (0°04′S, 34°48′, elevation 1214 m) in western Kenya. The soil is classified as a vetro-eutic planosol according to the FAO/UNESCO (1974) system. The fields used had previously been cropped to maize that was heavily infested with Striga, which matured and seeded the area. The experiments were carried out during October-January […]. Seasonal precipitation during that season was 550 mm. […] Maize stand counts were determined six weeks after planting. […] The number of flowering Striga plants and Striga seed capsules at twelve and fourteen weeks; adjusted grain yield to 15% moisture; and total maize shoot dry weight were all measured. […]

Striga [2] = test: Pot experiments, Kenya: watering regimes and efficacy of slow release formulations on Striga; assay type: in vivo; settings: pots
Description: Formulations were prepared as outlined in Example 3 and applied to the seeds, without adding free imazapyr (as in Example 2) and planted in pots. 63 pots (10,380 cm^3) were set up, each with 8 kg soil (classified as a vetro-eutic planosol according to the FAO/UNESCO (1974) system) so that we had 21 pots per replication. Each pot was inoculated with 3,000 Striga and mixed thoroughly at a depth of 15 cm. The pots were watered and left for one week to allow Striga seeds to “pre-condition” for germination. Two IR-corn seeds were planted in each plot, each treated 0, 0.25, 0.5 acid equivalent mg imazapyr per pot, as the free acid of the herbicide, or in 0, 0.15, 0.3, acid equivalent mg imazapyr per pot DE-52 or Dowex 1 formulations. Each formulation treatment at each rate had three replicates at each simulated rainfall regime. Natural rain measurements were made. Rainfall was supplemented at 19, 28, and 56 mm of water applied twice weekly, less amount of natural rainfall, for three months to simulate seasonal rainfalls of 500, 750 and 1500 mm, respectively. Measurements of Striga emergence were made at biweekly intervals. Late season emergence of Striga was measured at 12 weeks after planting. […] At the medium and highest watering level, there was no control of Striga by the lowest free herbicide rates, whereas the slow release herbicide performed far better (Table 3).

CC(C)C1(C)N=C(c2ncccc2C(=O)O)NC1=O (centres unmarked) [Imazapyr, imazapyr]
Striga emergence (m^−2) at 12 weeks (Striga [1]; imazapyr 0.25 mg/seed): 2.1 m^−2
Striga emergence (m^−2) at 12 weeks (Striga [1]; imazapyr 0.5 mg/seed): 0.7 m^−2
Late season Striga emergence 12 weeks (plants/m^2) (Striga [2]; High water (1500 mm total), imazapyr 0.25 mg/seed): 57 plants/m^2
Late season Striga emergence 12 weeks (plants/m^2) (Striga [2]; High water (1500 mm total), imazapyr 0.5 mg/seed): 11 plants/m^2
Late season Striga emergence 12 weeks (plants/m^2) (Striga [2]; Low water (500 mm total), imazapyr 0.25 mg/seed): 16 plants/m^2
Late season Striga emergence 12 weeks (plants/m^2) (Striga [2]; Low water (500 mm total), imazapyr 0.5 mg/seed): 3 plants/m^2
Late season Striga emergence 12 weeks (plants/m^2) (Striga [2]; Medium water (750 mm total), imazapyr 0.25 mg/seed): 33 plants/m^2
Late season Striga emergence 12 weeks (plants/m^2) (Striga [2]; Medium water (750 mm total), imazapyr 0.5 mg/seed): 7 plants/m^2
